As usually defined, the pIC50 is the IC50 on a negative log10 scale, so that one unit is a factor of ten. Read a high pIC50 as a low IC50.

pIC50: −log10 of the molar value.

The assay deals with T1, Glucocorticoid receptor (Homo sapiens, UniProt P04150).
T1 sequence (P04150 whole entry): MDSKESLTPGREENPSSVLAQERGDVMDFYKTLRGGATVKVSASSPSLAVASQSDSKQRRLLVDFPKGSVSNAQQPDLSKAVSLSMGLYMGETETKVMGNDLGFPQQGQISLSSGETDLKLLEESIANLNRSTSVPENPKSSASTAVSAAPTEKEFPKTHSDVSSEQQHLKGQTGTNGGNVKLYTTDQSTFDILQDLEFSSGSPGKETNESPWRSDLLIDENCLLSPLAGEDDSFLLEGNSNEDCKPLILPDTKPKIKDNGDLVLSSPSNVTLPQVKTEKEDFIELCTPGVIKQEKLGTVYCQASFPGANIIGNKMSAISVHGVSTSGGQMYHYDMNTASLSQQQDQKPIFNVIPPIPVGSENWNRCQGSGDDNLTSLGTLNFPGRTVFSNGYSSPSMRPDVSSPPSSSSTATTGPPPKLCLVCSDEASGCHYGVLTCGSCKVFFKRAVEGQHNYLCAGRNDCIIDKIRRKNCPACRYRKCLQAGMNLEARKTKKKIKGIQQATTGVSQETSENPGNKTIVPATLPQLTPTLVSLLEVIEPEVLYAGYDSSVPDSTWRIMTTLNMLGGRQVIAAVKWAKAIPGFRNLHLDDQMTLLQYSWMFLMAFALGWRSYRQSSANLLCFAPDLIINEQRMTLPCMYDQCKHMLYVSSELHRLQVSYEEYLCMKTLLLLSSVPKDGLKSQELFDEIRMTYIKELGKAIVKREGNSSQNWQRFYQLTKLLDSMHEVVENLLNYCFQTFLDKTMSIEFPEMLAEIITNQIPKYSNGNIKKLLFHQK
The experiment in a line: Binding affinity to glucocorticoid receptor by Fluorescence polarization. (Fluorescence polarisation rises when a labelled molecule tumbles more slowly, as on binding a larger partner.)

Compound `COc1ccc(F)cc1C(C)(C)C[C@](O)(Cc1ccc(Cl)cc1)C(F)(F)F` had a pIC50 of 5.70.
Then `COc1ccc(F)cc1C(C)(C)C[C@@](O)(Cc1ccc(Cl)cc1)C(F)(F)F`, with 7.00.
